From the METLIN SMRT retention time set (Domingo-Almenara et al. 2019) come the findings set out here.

This data set in a line: gradient 5% acetonitrile 3 min, to 50% in 2 min, to 85% in 15 min, held 3 min, 100 µL/min. The following applies: column: Zorbax Extend-C18 2.1 x 50 mm; eluents: water / acetonitrile, 0.1% formic acid. An outline of the steps: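 Retention times of pure standards were taken from adduct peaks that were selected by computer and manually inspected. Over 3 months, mixtures of ~100 molecules were run by HPLC–quadrupole time-of-flight mass spectrometry in positive and negative ionization mode. The Zorbax Extend-C18 column (2.1 × 50 mm, 1.8 μm) ran at 100 μL/min in water and acetonitrile, each containing 0.1% formic acid, with 40 μL dead volume and 900 μL dwell volume.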
`CCn1cc(S(=O)(=O)N2CCCCC2c2nc(-c3ccncc3)n[nH]2)cn1` (stereo not drawn): the RP-LC retention time was 695 s.
Molecule `CCc1noc(NC(C)=O)c1-c1ccc(C)c(S(=O)(=O)Nc2ccc(OC)c(OC)c2)c1` returned an RP-LC retention time of 840 s.
In turn, `CCCNC(=O)C1CCN(c2ccc(SCC(=O)Nc3ccccc3C)nn2)CC1` gave an RP-LC retention time of 636 s.
As for `COc1ccc(-c2nnc(Cc3nc(-c4ccc(Cl)cc4)no3)o2)cc1OC`, the RP-LC retention time worked out at 990 s.
`CCC(=O)N(CCCOC)CC(=O)N1CCc2sccc2C1COc1ccccc1F` (stereo not drawn) gave an RP-LC retention time of 912 s.
In the case of `COc1ccc(C2CC(=O)N(c3cccc(F)c3)C(=O)C2)cc1OC`, the RP-LC retention time was 839 s.
For `CC(=O)Nc1ccc(-n2cnc(C(=O)NCc3ccccc3F)c2)nc1` the value was 663 s.
The molecule `Cc1cccc(N2C(=O)CN(Cc3ccccc3Cl)[C@H]3CS(=O)(=O)C[C@H]32)c1` registered an RP-LC retention time of 917 s.
As for `Nc1nnc(Cc2ccc3c(c2)OCCO3)o1`, the figure is 589 s; as for `COc1ccc(C2CC(=O)N(c3cccc(Cl)c3)C(=O)C2)cc1OC`, 881 s.
Turning to `COC(=O)c1ncn2c1C(=O)N(c1ccc(C)cc1)C(C)(C(=O)NCc1ccccc1)C2` (stereo not drawn), the RP-LC retention time turned out to be 692 s.
For `COc1ccc(OC)c(NC(=O)Cn2c(C)cc(-c3nnc(C4CC4)o3)c2C)c1` the value was 830 s; for `Cc1ccc(C(CNC(=O)c2cc(-c3ccc4c(c3)CCCC4)on2)N2CCN(C)CC2)o1` (stereo not drawn), 838 s; for `O=c1ccc(S(=O)(=O)N2CCCCCC2)cn1Cc1cccc(F)c1`, 944 s.
For `Cc1ccc(Cl)cc1NC(=O)C(=O)c1cccn1C` the value was 878 s; for `CC(=O)N1CCc2cc(S(=O)(=O)C(C)CC(=O)NC3CCN(Cc4ccccc4)CC3)ccc21` (stereo not drawn), 551 s.
As for `Cc1cc(C)c(CNC(=O)c2ccc3c(c2)CC(=O)N3C)c(C)c1`, the figure is 830 s; as for `CCOc1ccc(N2C=C(C(=O)N3CCOCC3)S(=O)(=O)c3ccc(Cl)cc32)cc1`, 893 s; as for `O=C(NCc1cccc(Br)c1)C1CCN(C(=O)C2Sc3ccccc3NC2=O)CC1` (stereo not drawn), 800 s.
`CN(C)C(=O)c1ccc2c(c1)nnn2CCNC(=O)Nc1ccccc1` yielded an RP-LC retention time of 626 s.
As for `CCC(CC)C(=O)N1CCC2(CC1)NCc1ccccc1-n1ccnc12`, the figure is 580 s; as for `CC(=O)Nc1ccc(-n2cnc(C(=O)NC(C)CCc3ccccc3)c2)nc1` (stereo not drawn), 744 s; as for `CC(C)c1nnc(NC(=O)CCCOc2ccc(Cl)cc2)s1`, 876 s.
`O=C(c1ccc(S(=O)(=O)c2ccc(Cl)cc2)s1)N1CCN(c2ccccn2)CC1` yielded an RP-LC retention time of 702 s.
As for `COC(c1ccccc1)(c1ccccc1)[C@H](Oc1nc(C)cc(C)n1)C(=O)O`, the figure is 913 s; as for `CC1(C(=O)NCc2ccccc2)Cc2ccccc2C(=O)N1C1CC1` (stereo not drawn), 751 s; as for `CCN(CC)c1nc2cc(C(=O)N3CCN(c4ccccn4)CC3)ccc2c(=O)n1Cc1ccccc1`, 729 s.
For `O=C(Nc1ccc(Cl)cc1F)N1CCC(n2c(-c3ccco3)nc3cccnc32)C1` (stereo not drawn) the value was 827 s; for `CNC(=O)[C@@H]1CN(C(=O)c2ccn(C)n2)C[C@H]1COC`, 535 s.
Turning to `Cn1ccc2cc(S(=O)(=O)N3CCC(C(=O)NCC4CCCO4)CC3)ccc21` (stereo not drawn), the RP-LC retention time was 739 s.
The molecule `Cc1cc(N2CCCCC2)nc(N2CCN(S(=O)(=O)c3ccc(Br)cc3)CC2)n1` returned an RP-LC retention time of 847 s.
As for `CCCNC(=O)C1CCCN(c2ccc(SCC(=O)NCc3ccc(OC)cc3)nn2)C1` (stereo not drawn), the figure is 595 s; as for `O=C(CN1CN(c2ccccc2)c2ncccc2S1(=O)=O)Nc1cccc(Cl)c1`, 983 s; as for `Cc1ccc(C)c(NC(=O)C2CCN(S(C)(=O)=O)c3ccccc3O2)c1` (stereo not drawn), 943 s.
As for `CCc1ccc(NC(=O)Cn2c(=O)c3cc(-c4ccco4)nn3c3ncccc32)cc1`, the figure is 882 s.
For `O=c1ccc(-c2ccccc2)nn1Cc1nc(-c2cccc(Cl)c2)no1` the value was 1100 s.
The molecule `O=C1/C(=C/c2ccc(Cl)c(Cl)c2)CN(C(=O)CCN2CCOCC2)C/C1=C\c1ccc(Cl)c(Cl)c1` returned an RP-LC retention time of 881 s.
In the case of `O=C1CN(CCc2cccs2)C2CS(=O)(=O)CC2N1c1ccc(Cl)cc1` (stereo not drawn), the RP-LC retention time turned out to be 790 s.
Turning to `Cc1cc(C(=O)NCc2cccc(F)c2)nc2cc(-c3cccs3)nn12`, the RP-LC retention time came out at 1090 s.
For `Cc1cccc(NC(=O)CN2C(=O)C(C(=O)N3CCCC3)Sc3ccccc32)c1C` (stereo not drawn) the value was 945 s; for `Cc1noc(C)c1CN1CCN(C(=O)Cc2ccccc2Cl)CC1`, 563 s.
As to `O=C(CCc1cn(Cc2ccccc2Cl)c2ccccc12)N1CCN(c2ccccn2)CC1`, the RP-LC retention time was 796 s.
For `CCCS(=O)(=O)N1CCOc2ccc(NC(=O)NCC)cc2C1` the value was 696 s; for `O=C(NCCCN1CCOCC1)C1CCCN(c2nc3ccccc3n(Cc3ccccc3)c2=O)C1` (stereo not drawn), 720 s.
In turn, `CCc1ccc(-n2nnc3c(=O)n(Cc4nc(-c5ccccc5Cl)no4)cnc32)cc1` returned an RP-LC retention time of 1120 s.
The molecule `COc1cccc(CNC(=O)C2(C)CCCN(C(=O)Nc3ccccc3C)C2)c1` (stereo not drawn) registered an RP-LC retention time of 895 s.
For `Cc1noc(C2CN(C(=O)Nc3ccc(C)c(C)c3)CC23CCOCC3)n1` (stereo not drawn) the value was 768 s; for `COc1cccc(CNC(=O)c2cc3c(-c4cccs4)nn(-c4ccccc4)c3n2C)c1`, 1120 s; for `CN1C(=O)c2cc(C(=O)N3CCOCC3)nn2CC1(C)C(=O)NCc1ccc(F)cc1` (stereo not drawn), 644 s.
As for `COC(=O)c1cn(Cc2cc(C)ccc2C)nc1S(=O)(=O)N(C)c1ccc(C)cc1`, the figure is 1060 s; as for `CCCOc1nc2c(c(=O)n(C)c(=O)n2C)n1C`, 788 s.
As for `CCN1CCCn2cc(S(=O)(=O)Nc3cccc(Cl)c3)cc2C1=O`, the figure is 770 s; as for `COC[C@@H]1CN(S(=O)(=O)c2ccc(F)cc2)C[C@H]1c1ccncc1`, 639 s; as for `CC(=O)Oc1ccccc1C1=NN(C(C)=O)C(c2ccc(Cl)cc2)O1` (stereo not drawn), 1020 s.
Consider `Cc1cc(NS(=O)(=O)c2ccc3c(c2)CCCC(=O)N3)ccc1Br`, for which the RP-LC retention time worked out at 774 s.
`Cc1ccc(NC(=O)CC2SC3=NCCN3C2=O)cc1` (stereo not drawn) had an RP-LC retention time of 578 s.
For `O=S(=O)(NCc1ccc(F)cc1)c1ccc(N2CCCCS2(=O)=O)cc1` the value was 777 s; for `Fc1ccc(Cn2cccc2-c2nc(-c3ccncc3)no2)cc1`, 1100 s.
For the molecule `CCOc1ccc(OCC)c(NC(=O)CSc2nnc3c4cc(-c5ccc(OC)cc5)nn4ccn23)c1`, the RP-LC retention time stood at 1010 s.
As for `Cn1cc(CC(=O)NCc2ccc(F)cc2)c2cccnc21`, the figure is 669 s.
As for `Cc1c(-c2noc(-c3ccc4c(c3)OCO4)n2)nnn1Cc1cccc(F)c1`, the RP-LC retention time was found to be 990 s.
For `Cc1nc(-c2ccccc2)nn1C1CCN(S(=O)(=O)c2cccs2)C1` (stereo not drawn) the value was 816 s; for `CCOc1ccc(-c2noc(Cn3nc(-c4ccc(C)c(C)c4)ccc3=O)n2)cc1`, 1230 s; for `CCC(=O)N1c2ccc(S(=O)(=O)N3CCCCC3)cc2CC1C(=O)NCc1ccc(C)cc1` (stereo not drawn), 955 s.
For `CC(C)(CO)NS(=O)(=O)c1cc(-c2nnc(-c3ccccc3)o2)ccc1F` the value was 773 s; for `Cc1ccc(-c2nnc(-c3cccnc3N3CCC4(CC3)OCCO4)o2)cc1`, 962 s.
As for `C=CCN(Cc1nc(-c2ccc(C)cc2)no1)C(=O)Nc1cccc(Cl)c1`, the figure is 1150 s; as for `CCc1ccccc1NC(=O)Cc1csc2nc(-c3ccc(C)c(C)c3)cn12`, 928 s; as for `Cc1cc(C)cc(NC(=O)Cn2c(=O)nc(N3CCC(C)CC3)c3ccccc32)c1`, 925 s.
`COc1cc(=O)c(C(=O)NC(C)C)nn1-c1ccc(F)cc1` displayed an RP-LC retention time of 686 s.
For the molecule `O=C(NCC1(CO)CC1)C(=O)Nc1cccc(N2CCCCC2=O)c1`, the RP-LC retention time stood at 610 s.
For the molecule `Cc1ccc(C)c(NC(=O)N2CCN(c3cc(-c4cccnc4)[nH]n3)CC2)c1`, the RP-LC retention time was determined as 632 s.
For `CC1=C(c2ccccc2)S(=O)(=O)N=C1N1CCC(NC(=O)COc2ccccc2)CC1` the value was 841 s; for `CCNC(=O)C1CCCN(c2nc3ncn(CC(=O)Nc4ccc(C)cc4C)c(=O)c3s2)C1` (stereo not drawn), 711 s.
Consider `COCCn1c(CCCC(=O)N2CCN(c3ccccn3)CC2)nc2cccnc21`, for which the RP-LC retention time stood at 562 s.
For `COc1cc([C@@H]2c3cc4c(cc3[C@H](O)[C@@H](CO)[C@@H]2C(=O)NCCCc2ccccc2)OCO4)cc(OC)c1OC` the value was 761 s; for `CCOc1ccc(S(=O)(=O)N2CCC(C(=O)NC)CC2)cc1C`, 761 s.
For `COc1ccccc1CCC(=O)NCC(=O)Nc1nc2ccccc2[nH]1` the value was 652 s.
